Columns and labels:
[1] = target: T1, Human LBAT (Homo sapiens, UniProt Q14973); assay: LBAT (h/m) assay: 3H-taurocholic acid uptake in human LBAT-overexpressing cells; type: cell-based; settings: 0.3 μM 3H-taurocholic acid and 7.5 μM cold taurocholic acid, 20 minutes, read-out: hLBAT IC50
T1 construct: expressed in transfected cells; kept under Geneticin selection
T1 sequence (Q14973 1-349): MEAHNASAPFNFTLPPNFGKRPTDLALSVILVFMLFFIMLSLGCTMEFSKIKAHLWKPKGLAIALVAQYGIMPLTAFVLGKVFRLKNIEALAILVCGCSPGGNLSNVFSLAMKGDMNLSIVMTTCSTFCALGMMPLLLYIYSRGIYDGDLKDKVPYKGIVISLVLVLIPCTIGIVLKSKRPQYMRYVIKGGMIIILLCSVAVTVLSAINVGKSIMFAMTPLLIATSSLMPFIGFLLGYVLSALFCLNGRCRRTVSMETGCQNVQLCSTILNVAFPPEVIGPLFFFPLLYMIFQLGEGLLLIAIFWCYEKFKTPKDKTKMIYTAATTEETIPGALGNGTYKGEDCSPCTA
Procedure: LBAT (h/m) Assay Protocol
20,000 cells (Human or Mouse LBAT-overexpressing cells) were seeded in 96-wells plate (Corning CLS3809) in 100 μL MEM-alpha medium (Gibco 12571-063) supplemented with 10% FBS (Gibco 10438026) containing Geneticin (Gibco 10131-027) (1 mg/mL) and incubated at 37° C. in 5% CO2 for 24 hours. After incubation, media was decanted from the wells and cells were washed two times with 300 μL of basal MEM-alpha medium (FBS-free). After decanting basal MEM-alpha medium each time, plates were tapped against paper towel to ensure maximum removal of residual media. For human LBAT, incubation mix was prepared by adding test inhibitor dilutions (3-fold serial dilution in DMSO (Sigma D2650), 10 points) in MEM-alpha (without FBS) containing 0.3 μM 3H-taurocholic acid (ARC ART-1368) and 7.5 μM cold taurocholic acid (Sigma T4009) (maintaining 0.2% final DMSO concentration). For mouse LBAT, incubation mix was prepared by adding test inhibitor dilutions (3-fold serial dilution in DMSO, 10 points) in MEM-alpha (without FBS) containing 0.3 μM 3H-taurocholic acid and 25 μM cold taurocholic acid maintaining 0.2% final DMSO concentration).
50 μL of incubation mix containing test inhibitors was then added to the wells (in duplicate) and the plates were incubated for 20 minutes in a CO2 incubator at 37° C. After incubation, the reaction was stopped by keeping the plates on ice water mix for 2-3 minutes and then the incubation mix was aspirated completely from the wells. The wells were washed two times with 250 μL of chilled unlabelled 1 mM taurocholic acid dissolved in HEPES (Gibco 15630080)-buffered (10 mM) HBSS (Gibco 14175079) (pH 7.4). The plates were tapped against a paper towel after every wash to ensure maximum removal of blocking buffer.
100 μL of MicroScint-20 (PerkinElmer 6013621) was added to the wells and kept overnight at room temperature before reading the plates in TopCount NXT™ Microplate Scintillation and Luminescence Counter from PerkinElmer under 3H Test protocol (set at 120 seconds reading time per well, with normal plate orientation).
(§1) Preparation of Test Compound Dilutions
(§2) All test compounds were provided in powder form at room temperature. 10 mM DMSO stocks of the test compounds were prepared, aliquoted and stored at −20° C. From the 10 mM DMSO stock of the compounds, a 3-fold serial dilution in DMSO was prepared to get a total of 10 dilutions of the test compounds. 0.5 μL of this dilution in DMSO was added to 250 μL of FBS-free basal media containing 3H-taurocholic acid and cold taurocholic acid to prepare the incubation mixture.

[2] = target: T2, Human ASBT (Homo sapiens, UniProt Q12908); assay: ASBT (h/m) assay: 3H-taurocholic acid uptake in human ASBT-overexpressing cells; type: cell-based; settings: 0.25 μM 3H-taurocholic acid and 5 μM cold taurocholic acid, 20 minutes, read-out: hASBT IC50
T2 construct: expressed in transfected cells; kept under Puromycin selection
T2 sequence (Q12908 1-348): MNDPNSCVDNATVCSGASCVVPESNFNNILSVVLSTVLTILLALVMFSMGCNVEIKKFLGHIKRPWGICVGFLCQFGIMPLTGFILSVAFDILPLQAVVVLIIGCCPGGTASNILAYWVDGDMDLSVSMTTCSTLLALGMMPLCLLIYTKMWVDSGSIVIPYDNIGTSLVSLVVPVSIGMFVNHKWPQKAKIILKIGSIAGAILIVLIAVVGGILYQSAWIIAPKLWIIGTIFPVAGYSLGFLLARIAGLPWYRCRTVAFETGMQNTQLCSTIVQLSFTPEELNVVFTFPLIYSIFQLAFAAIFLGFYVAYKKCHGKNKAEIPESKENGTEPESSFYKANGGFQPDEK
Procedure: ASBT (h/m) Assay Protocol
10,000 cells (Human or Mouse ASBT-overexpressing cells) were seeded in 96-wells plate (Corning CLS3809) in 200 μL MEM-alpha medium (Gibco 12571-063) supplemented with 10% FBS (Gibco 10438026) containing Puromycin (Gibco A1113803) (10 μg/mL) and incubated at 37° C. in 5% CO2 for 48 hours. After incubation, media was decanted from the wells and cells were washed two times with 300 μL of basal MEM-alpha medium (FBS-free). After decanting basal MEM-alpha medium each time, plates were tapped against paper towel to ensure maximum removal of residual media. Test inhibitor dilutions (highest test concentration being 10 μM, 3-fold serial dilution, 10 points) prepared in DMSO (Sigma D2650) were added in incubation mix (maintaining 0.2% final DMSO concentration) containing 0.25 μM 3H-taurocholic acid (ARC ART-1368) and 5 μM of cold taurocholic acid (Sigma T4009). 50 μL of incubation mix containing test inhibitors was then added to the wells (in duplicate) and the plates were incubated for 20 minutes in a CO2 incubator at 37° C. After incubation, the reaction was stopped by keeping the plates on ice water mix for 2-3 minutes and then the incubation mix was aspirated completely from the wells. The wells were washed two times with 250 μL of chilled unlabelled 1 mM taurocholic acid dissolved in HEPES (Gibco 15630080)-buffered (10 mM) HBSS (Gibco 14175079) (pH 7.4). The plates were tapped against a paper towel after every wash to ensure maximum removal of blocking buffer.
100 μL of MicroScint-20 (PerkinElmer 6013621) was added to the wells and kept overnight at room temperature before reading the plates in TopCount NXT™ Microplate Scintillation and Luminescence Counter from PerkinElmer under 3H Test protocol (set at 120 seconds reading time per well).
as §1, §2

| Compound | IC50 [1] [µM] | IC50 [2] [µM] |
| --- | --- | --- |
| CCCCC1(CC)CN(c2ccccc2)c2cc(SC)c(O/C=C\C(=O)O)cc2S(=O)(=O)C1 (racemic) [Example 59, (Z)-3-((3-butyl-3-ethyl-7-(methylthio)-1,1-dioxido-5-phenyl-2,3,4,5-tetrahydro-1,5-benzothiazepin-8-yl)oxy)acrylic acid] | – | 0.085 |
| CCCCC1(CC)CN(c2ccccc2)c2cc(SC)c(O/C=C/C(=O)O)cc2S(=O)(=O)N1 (racemic) [Example 76, (E)-3-((3-butyl-3-ethyl-7-(methylthio)-1,1-dioxido-5-phenyl-2,3,4,5-tetrahydro-1,2,5-benzothiadiazepin-8-yl)oxy)acrylic Acid] | 0.217 | 0.041 |
| CCCCC1(CC)CN(c2ccccc2)c2cc(NC)c(O/C=C/C(=O)O)cc2S(=O)(=O)C1 (racemic) [Example 91, (E)-3-((3-butyl-3-ethyl-7-(methylamino)-1,1-dioxido-5-phenyl-2,3,4,5-tetrahydro-1,5-benzothiazepin-8-yl)oxy)acrylic Acid] | 1.3 | 0.041 |
| CCCCC1(CC)CN(c2ccccc2)c2cc(Br)c(O/C=C/C(=O)O)cc2S(=O)(=O)C1 (single isomer, unassigned) [Example 5, (E)-3-((7-bromo-3-butyl-3-ethyl-1,1-dioxido-5-phenyl-2,3,4,5-tetrahydro-1,5-benzothiazepin-8-yl)oxy)acrylic acid] | 0.29 | 1.23 |
| CCCCC1(CC)CN(c2ccccc2)c2cc(SC)c(O/C=C/C(=O)O)cc2S(=O)(=O)C1 (single isomer, unassigned) [Example 17, (E)-3-((3-butyl-3-ethyl-7-(methylthio)-1,1-dioxido-5-phenyl-2,3,4,5-tetrahydro-1,5-benzothiazepin-8-yl)oxy)acrylic acid] | 0.116 | – |
| CCCCC1(CC)CN(c2ccccc2)c2cc(Cl)c(O/C=C/C(=O)O)cc2S(=O)(=O)C1 (single isomer, unassigned) [Example 51, (E)-3-((3-butyl-7-chloro-3-ethyl-1,1-dioxido-5-phenyl-2,3,4,5-tetrahydro-1,5-benzothiazepin-8-yl)oxy)acrylic acid] | 0.096 | – |
| CCCC[C@]1(CC)CN(c2ccccc2)c2cc(SC)c(O/C=C\C(=O)O)cc2S(=O)(=O)C1 (single isomer, unassigned) [Example 61] | – | 1.62 |
| CCCC[C@]1(CC)CN(c2ccccc2)c2cc(SC)c(O/C=C/C(=O)O)cc2S(=O)(=O)N1 (single isomer, unassigned) [Example 78] | 0.096 | 0.156 |
| CCCC[C@@]1(CC)CN(c2ccccc2)c2cc(SC)c(O/C=C/C(=O)O)cc2S(=O)(=O)N1C (single isomer, unassigned) [Example 89] | 0.29 | 2.01 |
| CCCC[C@@]1(CC)CN(c2ccccc2)c2cc(NC)c(O/C=C/C(=O)O)cc2S(=O)(=O)C1 (single isomer, unassigned) [Example 92] | 1.47 | 0.748 |
| CCCC[C@]1(CC)CN(c2ccccc2)c2cc(F)c(O/C=C/C(=O)O)cc2S(=O)(=O)C1 (single isomer, unassigned) [Example 102] | 0.298 | 3.33 |
| CCCC[C@@]1(CC)CN(c2ccccc2)c2cc(F)c(O/C=C/C(=O)O)cc2S(=O)(=O)C1 (single isomer, unassigned) [Example 103] | 0.187 | 0.32 |
| CCCCC1(CCCC)CN(c2ccccc2)c2cc(N(C)C)c(O/C=C/C(=O)O)cc2S(=O)(=O)C1 [Example 8, (E)-3-((3,3-dibutyl-7-(dimethylamino)-1,1-dioxido-5-phenyl-2,3,4,5-tetrahydro-1,5-benzothiazepin-8-yl)oxy)acrylic Acid] | 1.47 | 0.04 |
| CCCCC1(CCCC)CN(c2ccccc2)c2cc(SCC)c(O/C=C/C(=O)O)cc2S(=O)(=O)C1 [Example 67, (E)-3-((3,3-dibutyl-7-(ethylthio)-1,1-dioxido-5-phenyl-2,3,4,5-tetrahydro-1,5-benzothiazepin-8-yl)oxy)acrylic Acid] | 0.461 | 0.192 |
| CCCCC1(CCCC)CN(c2ccccc2)c2cc(SC)c(O/C=C(\F)C(=O)O)cc2S(=O)(=O)N1C [Example 105, (Z)-3-((3,3-dibutyl-2-methyl-7-(methylthio)-1,1-dioxido-5-phenyl-2,3,4,5-tetrahydro-1,2,5-benzothiadiazepin-8-yl)oxy)-2-fluoroacrylic Acid] | 0.068 | – |

Now from value to compound:

| IC50 [1] [µM] | IC50 [2] [µM] | Compound |
| --- | --- | --- |
| 0.218 | 0.167 | CCCCC1(CC)CN(c2ccccc2)c2cc(Br)c(O/C=C/C(=O)O)cc2S(=O)(=O)C1 (racemic) [Example 4, (E)-3-((7-bromo-3-butyl-3-ethyl-1,1-dioxido-5-phenyl-2,3,4,5-tetrahydro-1,5-benzothiazepin-8-yl)oxy)acrylic acid] |
| 4.22 | 0.039 | CCCC[C@@]1(CC)CN(c2ccccc2)c2cc(SC)c(O/C=C\C(=O)O)cc2S(=O)(=O)C1 (single isomer, unassigned) [Example 60] |
| 3.16 | 0.052 | CCCC[C@]1(CC)CN(c2ccccc2)c2cc(NC)c(O/C=C/C(=O)O)cc2S(=O)(=O)C1 (single isomer, unassigned) [Example 93] |
| 0.033 | 0.138 | CCCC[C@]1(CC)CN(c2ccccc2)c2cc(N(C)C)c(O/C=C(\F)C(=O)O)cc2S(=O)(=O)C1 (single isomer, unassigned) [Example 110] |
| 0.145 | 0.07 | CCCCC1(CCCC)CN(c2ccccc2)c2cc(SC)c(O/C=C/C(=O)O)cc2S(=O)(=O)C1 [Example 1, (E)-3-((3,3-dibutyl-7-(methylthio)-1,1-dioxido-5-phenyl-2,3,4,5-tetrahydro-1,5-benzothiazepin-8-yl)oxy)acrylic acid] |
| 1.3 | 0.02 | CCCCC1(CCCC)CN(c2ccc(O)cc2)c2cc(SC)c(O/C=C/C(=O)O)cc2S(=O)(=O)C1 [Example 20, (E)-3-((3,3-dibutyl-5-(4-hydroxyphenyl)-7-(methylthio)-1,1-dioxido-2,3,4,5-tetrahydro-1,5-benzothiazepin-8-yl)oxy)acrylic Acid] |
